Source: patent US20260232740A1, “COMBINATIONS COMPRISING VITAMIN B2 AND LACTOBACILLUS RHAMNOSUS” (DSM IP Assets B.V., priority 2022, published 2026)

Tests used:
[1] = test system: Bifidobacteriaceae; assay: Long-term SHIME fermentation (colon model), 16S rRNA gene sequencing: relative abundance of Bifidobacteriaceae in mucus of transverse colon; set-up: species or system human; details: relative abundance (%), end of three-week treatment vs end of control period (n=3), probiotic 1*1010 CFU/reactor, vitamin B2 10 mg/day, p<0.05
Source text: (§1) The typical reactor setup of the SHIMER, representing the gastrointestinal tract of the adult human, was described by Molly et al. (1993) Applied Microbiology and Biotechnology 39 (2): 254-258. Inoculum preparation, retention time, pH, temperature settings and reactor feed composition were previously described by Possemiers et al. (2004) FEMS Microbiol Ecol. 49 (3): 495-507. Compared to the typical setup of the SHIME, the long-term SHIME experiment used for this example included some adaptations. In one reactor, at first, the conditions of the stomach were simulated, before being changed by the computer to conditions simulating the small intestine. […]
(§2) Samples for quantitative 16S-targeted Illumina sequencing were collected 3×/week during the last week of the control and treatment period. […] The obtained high-resolution proportional phylogenetic information (i.e., proportional abundances (%)) was combined with an accurate quantification of total bacterial cells via flow cytometry to obtain quantitative data at phylum, family, and species level. […] Samples were analyzed on a BD Facsverse (BDBiosciences, Erembodegem, Belgium) using the high-flow-rate setting and bacteria were separated from medium debris and signal noise by applying a threshold level of 200 on the SYTO channel. […]

[2] = test system: Bifidobacterium adolescentis; assay: Long-term SHIME fermentation (colon model), 16S rRNA gene sequencing and flow cytometry: levels of Bifidobacterium adolescentis in lumen of transverse colon; set-up: species or system human; details: average levels (log cells/mL), end of three-week treatment vs end of control period (n=3), probiotic 1*1010 CFU/reactor, vitamin B2 10 mg/day, p<0.05
Source text: as §1, §2

Substance: Lactobacillus rhamnosus GG
- abundance of Bifidobacteriaceae compared to the control [1]: did not significantly change
- abundance of Bifidobacterium adolescentis compared to the control [2]: did not significantly change
